Data set [1] deals with Mut^−/−; Tg^INS-MCK-Mut mice. As to conditions: mouse, in vivo; for Mut^+/− Oxidation Rate / Mut^−/− Oxidation Rate: ip. As to the method: To further assess transgene function, the in vivo oxidative capacity of Mut^−/−; Tg^INS-MCK-Mut mice was measured through detecting metabolism of numerous 1-^13C labeled fatty acids to ^13CO2 via the Kreb's Cycle.
The in vivo effects of hepatic Mut deficiency were also assessed by measuring the oxidation of 1-^13C-methionine (FIG. 1I) and 1-^13C-glycine (FIG. 1J). These labels reflect hepatic mitochondrial function and the activity of the glycine cleavage system, both known to be impaired in MMA patients.
In Vivo Stable Isotope Oxidation Studies: Stable isotope studies were performed in 4 Mut−/−; Tg^INS-MCK-Mut and 4 control littermates. Closed circuit, constant volume respiratory chambers were used to collect and measure enrichment of ^13CO2 in mice, as described previously (Chandler and Venditti, 2009 and 2010, Manoli et al 2013). Mice received IP injections with tracer amounts (10 μl/g of [10 mg/ml] tracer solution) of 99.9% ^13C-isotopomers. Aliquots of air were removed every 5-10 min, while CO2 was continuously monitored. ^13CO2 enrichment was measured by isotope ratio mass spectroscopy (Metabolic Solutions, Nashua, N.H.). […] Cumulative percentage of total isotopomer dose metabolized was subsequently calculated, using the formula: Percentage of dose metabolized=total ^13C excreted [mmol/dose (mmol)×100%].
The following 1-C labeled stable isotopes were used: ^13C Sodium Propionate, ^13C-Methionine, ^13C-Glycine, ^13C-Pyruvate, ^13C-Octanoate, ^13C-α-Ketoisocaproic Acid, ^13C-Leucine, ^13C-Acetate, ^13C-Phenylalanine. Stable isotopomers were purchased from Cambridge Isotope Laboratories. Variables were compared for each substrate and time point using a two-sided unpaired t-test and considered statistically significant at p<0.05.
These studies were conducted using N=5 mice with MMA (Mut^−/−; Tg^INS-MCK-Mut mutants) and N=5 sex matched littermates (controls). Each mouse was injected with the labels depicted in Table 3 and the oxidation rates and kinetics of ^13C/^12C CO2 enrichment were analyzed.

The test system of data set [2] is methylmalonic acidemia patients and healthy volunteers. Particulars: human, in vivo.
Description: Percent Dose Oxidized at each time point=CO2 production rate×Σ(APE (t)/(mmol C^13 administered)×100, where CO2 production rate was the one measured by the indirect calorimetry on the same day just prior to the isotope study.
The test cohort was comprised of 41 patients with MMA (26 mut0, aged 3-37 years, 6 mut-, aged 9-30 years, and 9 cblA, aged 4-41 years), 8 healthy volunteers, and 8 heterozygote parents of affected individuals. Within the affected group, 12 individuals had previously received a liver (LT), kidney (KT), combined liver-kidney (LKT), or partial (graft) liver-kidney (pLKT) transplant (2 LT, 3 KT, 6 LKT, 1 pLKT).
A metabolic cart (ParvoMedics TrueOne2400 Sandy, Utah) was used to measure subject O2 consumption (VO2), CO2 production (VCO2), and resting energy expenditure (REE) at supine posture for 25-35 minutes. Seven of the healthy volunteers were tested three times over a two-month period to evaluate inter- and intra-individual variability.
A dose of 0.5 mg/kg (or 0.5 ml/kg) body weight (BW) was administered to the study subjects orally or through a G-tube as a bolus over no more than 2 minutes, followed by similar amount of water consumption. […] Measurements of the isotopic ratio (^13C/^12C) in expired gas were determined by isotope ratio mass spectrometry (Metabolic Solutions, Nashua, N.H.).
Data set [3] in a line: Test drink solution stability. The class given is physicochemical. Particulars: 1 mg/ml in tap water.

As for `CC(C)C[13C@H](N)C(=O)O` [L-2-^13C-Leucine], in data set [1], the “Cumulative % of total dose metabolized, Controls, mean (SD)” value (from here on “Cumulative % … Controls, mean (SD)”) is 3.68 (2.34) % and the “Cumulative % of total dose metabolized, Mutants, mean (SD)” value (“Cumulative % … Mutants, mean (SD)” for short) is recorded as 3.32 (0.85) %.

As for `NC[13C](=O)O` [1-^13C-glycine], in data set [1], the “oxidation of label (release of label)” value was “impaired ability to release label”, the “Mut^+/− Oxidation Rate” value is given as 0.14 +/− 0.003 (n = 3) μmol/g/hour and the “Mut^−/− Oxidation Rate” value is 0.07 +/− 0.007 (n = 4) μmol/g/hour.

For `CC(C)C[C@H](N)[13C](=O)O` [L-1-^13C-Leucine], in data set [1], the “Cumulative % … Controls, mean (SD)” value is on record as 13.54 (1.50) % and the “Cumulative % … Mutants, mean (SD)” value is recorded as 12.44 (3.10) %.

On to `N[C@@H](C[13c]1ccccc1)C(=O)O` [L-1-^13C-Phenylalanine], for which, in data set [1], the “Cumulative % … Controls, mean (SD)” value is 10.75 (7.38) % and the “Cumulative % … Mutants, mean (SD)” value is listed as 5.71 (2.74) %.

As to `CSCC[C@H](N)[13C](=O)O` [1-^13C-methionine], in data set [1], the “oxidation of label (release of label)” value was “impaired ability to release label”, the “Mut^+/− Oxidation Rate” value is 11.5 +/− 3.4 (n = 4) μmol/g/hour and the “Mut^−/− Oxidation Rate” value is listed as 6.5 +/− 2.5 (n = 4) μmol/g/hour.

`CCC(=O)O` [1-^13C-propionate, sodium 1-^13C-propionate]: the “time within which the majority of the label is oxidized” value in data set [2] lay within 15 to 30 min. In addition, in data set [3], the “maximal time for maintaining solution stability” value is recorded as “two”.

Turning to `C[13C](=O)[O-].[Na+]` [1-^13C-acetate, Sodium 1-^13C-Acetate], in data set [1], the “Cumulative % … Controls, mean (SD)” value was 38.02 (11.79) %; the “Cumulative % … Mutants, mean (SD)” value is listed as 42.23 (14.32) %; the “Mut^+/− Oxidation Rate” value was 69.5 +/− 17.7 (n = 5) μmol/g/hour; the “Mut^−/− Oxidation Rate” value is 88.2 +/− 26.5 (n = 5) μmol/g/hour.

`C[13C](=O)C(=O)O` [Sodium 1-^13C-Pyruvate]: in data set [1], the “Cumulative % … Controls, mean (SD)” value is recorded as 52.16 (17.06) % and the “Cumulative % … Mutants, mean (SD)” value is 52.99 (9.85) %.

For `CC(C)CC(=O)[13C](=O)[O-].[Na+]` [Sodium 1-^13C-α-Ketoisocaproic Acid], in data set [1], the “Cumulative % … Controls, mean (SD)” value is recorded as 33.95 (3.66) % and the “Cumulative % … Mutants, mean (SD)” value was 24.00 (12.95) %.

Regarding `CC(C)[13C@H](N)C(=O)O` [2-^13C-Valine], in data set [1], the “Cumulative % … Controls, mean (SD)” value was 4.41 (2.63) % and the “Cumulative % … Mutants, mean (SD)” value is reported as 5.15 (2.19) %.

The record behind these values is patent publication US20200345268A1, “ISOTOPIC BIOMARKERS OF ORGANIC ACIDEMIAS” (The United States of America, as represented by the …, priority 2017, published 2020).
